# Results published in US20160281050A1, “METHODS FOR TREATING A CULTURE OF HAEMATOCOCCUS PLUVIALIS FOR CONTAMINATION USING SALT AND HYDROGEN PEROXIDE” (HELIAE DEVELOPMENT LLC, priority 2015, published 2016).
# How the values were obtained:
# chytrids = assay: % chytrid infection in flask cultures (Example 6); format: cell-based
# Description: A series of experiments were conducted to evaluate the effectiveness of hydrogen peroxide alone and in combination with concentrations of salt as a treatment for controlling chytrid infections in Haematococcus pluvialis cultures. […] Bioreactor #2420 had just been inoculated with cells in the green swimmer stage into reddening conditions that comprised of culture medium comprising a 1 ppt concentration of sodium chloride (NaCl). The flask experiment consisted of duplicate untreated controls and duplicate treatments.
# The flask cultures contained Haematococcus pluvialis (Strain 1) cells in both the green swimmer stage and early red cyst stage.
# The collected samples were inoculated in the green swimmer stage in growth conditions [i.e., in the absence of sodium chloride (NaCl)].
# The culture samples were inoculated in the green swimmer stage in growth conditions [i.e., in less than 1 ppt of sodium chloride (NaCl)].
# The flask cultures were then diluted 1:3 into reddening media comprising 1 ppt NaCl or 2 ppt NaCl (33.3 mL and 66.6 mL culture media).
# [1] = test system: Haematococcus pluvialis (Strain 1) green swimmer cells; assay: Commercial scale cultures: lysis, carotenoid content (UV), average growth rate (Example 5); details: for Maximum % Lysis of Culture: 0.007 mL/L every six hours
# Description: The findings from the flask test samples were then applied to commercial scale cultures of Haematococcus pluvialis (Strain 1) containing green swimmer cells that were transferred from open raceway pond bioreactor #2310 disposed in a greenhouse, using paddlewheel mixing, and operating in conditions: reactor volume of 55,000 L; Daily PAR of 42 mol m^−2 d^−1; pH of 7.5; and paddlewheel speed of 40%; to open raceway pond bioreactor #2420 disposed in a greenhouse, using paddlewheel mixing, operating in conditions: reactor volume of 140,000 L; Daily PAR of 40 mol m^−2 d^−1; pH of 7.3; and paddlewheel speed of 70%. Similarly, the culture in bioreactor #2320, operating in conditions: reactor volume of 60,000 L; Daily PAR of 42 mol m^−2 d^−1; pH of 7.5; and paddlewheel speed of 40%; was transferred by being split into pond bioreactors #2410 and 2430 operating in conditions: reactor volume of 150,000 L; Daily PAR of 40 mol m^−2 d^−1; pH of 7.3; and paddlewheel speed of 70%. […] Lysis was quantified upon harvest of the culture through visual observation of samples under a microscope. Carotenoid content of the cells was measured by UV method upon harvest, and the average growth rate of the culture was calculated based on periodic dry weight samples. The results were compared to data from previous culture runs in the same bioreactors or bioreactors with similar operating conditions during the same month (September 2014) at the same location.
# [2] = test system: Nitrogen fixing bacteria including Rhizobium, Emticicia, and Sinorhizobium; details: after the hydrogen peroxide treatments in bioreactor #2320 (from 20-40%)
# Text: A series of Haematococcus pluvialis (Strain 1) cultures were compared using bacterial community sequencing (SSU rRNA 16s) to analyze the bacterial community of the cultures during a lysis event, a chytrid infection, and during treatment with hydrogen peroxide to determine if the bacteria community shifts or produces a detectable pattern.
# [3] = test system: Haematococcus pluvialis (Strain 2); assay: % lysis and culture dry weight in flasks (Example 9); details: for percent lysis: by day 5;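 for all read-outs here: flask cultures run in duplicate for each treatment, alongside duplicate untreated control flasks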
# Description: Culture samples of Haematococcus pluvialis (Strain 2) were collected on day 5 of the culture from open raceway bioreactor #2420 operating in conditions: reactor volume of 170,000 L; Daily PAR not measured; pH of 7.3; and paddlewheel speed of 70%). Culture samples were distributed into flasks for culturing, consisting of duplicate untreated controls and duplicate treatments. […] Samples were taken from the flask cultures every few days in order to quantify % lysis, % chytrid infection, and cell dry weight for a duration of about 11 days.
substance,measurement,setting,value
hydrogen peroxide [H2O2],reduction in % chytrid infection compared to the control,"chytrids; 4th experiment, starting 5 days after inoculation (144 h)",50-90%
same,Average Chytrid Infection,"chytrids; #2210 samples, absence of NaCl, 0.0075 mL/L two times per day, 0 h",0.0 ± 0.0%
same,Average Chytrid Infection,"chytrids; #2210 samples, absence of NaCl, 0.0075 mL/L two times per day, 24 h",0.0 ± 0.0%
same,Average Chytrid Infection,"chytrids; #2210 samples, absence of NaCl, 0.0075 mL/L two times per day, 48 h",0.0 ± 0.0%
same,Average Chytrid Infection,"chytrids; #2210 samples, absence of NaCl, 0.0075 mL/L two times per day, 96 h",0.0 ± 0.0%
same,Average Chytrid Infection,"chytrids; #2210 samples, absence of NaCl, 0.0075 mL/L two times per day, 120 h",0.0 ± 0.0%
same,Average Chytrid Infection,"chytrids; #2210 samples, absence of NaCl, 0.0075 mL/L two times per day, 144 h",4.2 ± 5.9%
same,Average Chytrid Infection,"chytrids; #2210 samples, absence of NaCl, 0.0075 mL/L two times per day, 168 h",18.3 ± 25.9%
same,Average Chytrid Infection,"chytrids; #2210 samples, absence of NaCl, 0.0075 mL/L two times per day, 192 h",26.6 ± 37.1%
same,Average Chytrid Infection,"chytrids; #2210 samples, absence of NaCl, 0.0075 mL/L two times per day, 264 h",51.7 ± 7.1%
same,Average Chytrid Infection,"chytrids; #2310 samples (4th experiment), 1 ppt NaCl, 0.0075 mL/L 3 times per day, 0 h",0.0 ± 0.0%
same,Average Chytrid Infection,"chytrids; #2310 samples (4th experiment), 1 ppt NaCl, 0.0075 mL/L 3 times per day, 24 h",0.0 ± 0.0%
same,Average Chytrid Infection,"chytrids; #2310 samples (4th experiment), 1 ppt NaCl, 0.0075 mL/L 3 times per day, 48 h",0.0 ± 0.0%
same,Average Chytrid Infection,"chytrids; #2310 samples (4th experiment), 1 ppt NaCl, 0.0075 mL/L 3 times per day, 120 h",1.7 ± 1.7%
same,Average Chytrid Infection,"chytrids; #2310 samples (4th experiment), 1 ppt NaCl, 0.0075 mL/L 3 times per day, 144 h",18.3 ± 18.5%
same,Average Chytrid Infection,"chytrids; #2310 samples (4th experiment), 1 ppt NaCl, 0.0075 mL/L 3 times per day, 168 h",17.2 ± 14.4%
same,Average Chytrid Infection,"chytrids; #2310 samples (4th experiment), 1 ppt NaCl, 0.0075 mL/L 3 times per day, 192 h",32.2 ± 28.1%
same,Average Chytrid Infection,"chytrids; #2310 samples (4th experiment), 1 ppt NaCl, 0.0075 mL/L 3 times per day, 216 h",44.4 ± 46.8%
same,Average Chytrid Infection,"chytrids; #2420 samples, 1 ppt NaCl, 0.0075 mL/L 2-3 times per day, 0 h",0.0 ± 0.0%
same,Average Chytrid Infection,"chytrids; #2420 samples, 1 ppt NaCl, 0.0075 mL/L 2-3 times per day, 24 h",0.0 ± 0.0%
same,Average Chytrid Infection,"chytrids; #2420 samples, 1 ppt NaCl, 0.0075 mL/L 2-3 times per day, 48 h",0.0 ± 0.0%
same,Average Chytrid Infection,"chytrids; #2420 samples, 1 ppt NaCl, 0.0075 mL/L 2-3 times per day, 72 h",0.0 ± 0.0%
same,Average Chytrid Infection,"chytrids; #2420 samples, 1 ppt NaCl, 0.0075 mL/L 2-3 times per day, 144 h",0.0 ± 0.0%
same,Average Chytrid Infection,"chytrids; #2420 samples, 1 ppt NaCl, 0.0075 mL/L 2-3 times per day, 168 h",0.0 ± 0.0%
same,Average Chytrid Infection,"chytrids; #2420 samples, 1 ppt NaCl, 0.0075 mL/L 2-3 times per day, 197 h",0.0 ± 0.0%
same,Average Chytrid Infection,"chytrids; #2420 samples, 1 ppt NaCl, 0.0075 mL/L 2-3 times per day, 217 h",0.0 ± 0.0%
same,Average Chytrid Infection,"chytrids; #2440 samples, 1 ppt salt, 0.0075 mL/L 2-3 times per day, 0 h",0.0 ± 0.0%
same,Average Chytrid Infection,"chytrids; #2440 samples, 1 ppt salt, 0.0075 mL/L 2-3 times per day, 24 h",1.7 ± 2.9%
same,Average Chytrid Infection,"chytrids; #2440 samples, 1 ppt salt, 0.0075 mL/L 2-3 times per day, 96 h",25.0 ± 2.9%
same,Average Chytrid Infection,"chytrids; #2440 samples, 1 ppt salt, 0.0075 mL/L 2-3 times per day, 120 h",51.7 ± 5.0%
same,Average Chytrid Infection,"chytrids; #2440 samples, 1 ppt salt, 0.0075 mL/L 2-3 times per day, 144 h",43.9 ± 4.2%
same,Maximum % Lysis of Culture,[1]; Bioreactor 2410,70%
same,Maximum % Lysis of Culture,[1]; Bioreactor 2420,20%
same,Maximum % Lysis of Culture,[1]; Bioreactor 2430,35%
same,reduction of the level of cell lysis,"[1]; at least 0.007 mL/L every 6 hours, flask tests and commercial scale cultures together",at least 60%
same,lysis,[1]; two of the commercial scale cultures treated with hydrogen peroxide,20-35%
same,relative amount of nitrogen fixing bacteria in the dominant bacterial community,[2],less than 10%
same,% Lysis,"[3]; 0.0105 mL/L 3 times per day (discontinued day 5), day 6",3.3 ± 2.4%
same,% Lysis,"[3]; 0.0105 mL/L 3 times per day (discontinued day 5), day 9",6.7 ± 2.4%
same,% Lysis,"[3]; 0.0105 mL/L 3 times per day (discontinued day 5), day 11",4.2 ± 3.5%
same,% Lysis,"[3]; 0.0105 mL/L 3 times per day, day 0",4.2 ± 1.2%
same,% Lysis,"[3]; 0.0105 mL/L 3 times per day, day 3",0.8 ± 1.2%
same,% Lysis,"[3]; 0.0105 mL/L 3 times per day, day 4",3.3 ± 2.4%
same,% Lysis,"[3]; 0.0105 mL/L 3 times per day, day 5",10.8 ± 1.2%
same,% Lysis,"[3]; 0.0140 mL/L 1 time per day (discontinued day 5), day 6",7.5 ± 1.2%
same,% Lysis,"[3]; 0.0140 mL/L 1 time per day (discontinued day 5), day 9",10.8 ± 1.2%
same,% Lysis,"[3]; 0.0140 mL/L 1 time per day (discontinued day 5), day 11",7.5 ± 1.2%
same,% Lysis,"[3]; 0.0140 mL/L 1 time per day, day 0",4.2 ± 1.2%
same,% Lysis,"[3]; 0.0140 mL/L 1 time per day, day 3",5.0 ± 2.4%
same,% Lysis,"[3]; 0.0140 mL/L 1 time per day, day 4",4.2 ± 1.2%
same,% Lysis,"[3]; 0.0140 mL/L 1 time per day, day 5",10.0 ± 2.4%
same,% Lysis,"[3]; 0.0140 mL/L 2 times per day (discontinued day 5), day 6",9.7 ± 5.9%
same,% Lysis,"[3]; 0.0140 mL/L 2 times per day (discontinued day 5), day 9",5.0 ± 0.0%
same,% Lysis,"[3]; 0.0140 mL/L 2 times per day (discontinued day 5), day 11",0.0 ± 0.0%
same,% Lysis,"[3]; 0.0140 mL/L 2 times per day, day 0",4.2 ± 1.2%
same,% Lysis,"[3]; 0.0140 mL/L 2 times per day, day 3",5.0 ± 4.7%
same,% Lysis,"[3]; 0.0140 mL/L 2 times per day, day 4",3.3 ± 2.4%
same,% Lysis,"[3]; 0.0140 mL/L 2 times per day, day 5",10.0 ± 2.4%
same,% Lysis,"[3]; 0.0140 mL/L 3 times per day (discontinued day 5), day 6",55.0 ± 30.6%
same,% Lysis,"[3]; 0.0140 mL/L 3 times per day (discontinued day 5), day 9",60.0 ± 28.3%
same,% Lysis,"[3]; 0.0140 mL/L 3 times per day (discontinued day 5), day 11",56.7 ± 33.0%
same,% Lysis,"[3]; 0.0140 mL/L 3 times per day, day 0",4.2 ± 1.2%
same,% Lysis,"[3]; 0.0140 mL/L 3 times per day, day 3",2.5 ± 3.5%
same,% Lysis,"[3]; 0.0140 mL/L 3 times per day, day 4",9.2 ± 1.2%
same,% Lysis,"[3]; 0.0140 mL/L 3 times per day, day 5",42.5 ± 15.3%
same,percent lysis,[3]; 0.014 mL/L dosed three times per day,40%
same,% Lysis,"[3]; 0.0175 mL/L 1 time per day (discontinued day 5), day 6",6.7 ± 2.4%
same,% Lysis,"[3]; 0.0175 mL/L 1 time per day (discontinued day 5), day 9",6.7 ± 4.7%
same,% Lysis,"[3]; 0.0175 mL/L 1 time per day (discontinued day 5), day 11",4.2 ± 3.5%
same,% Lysis,"[3]; 0.0175 mL/L 1 time per day, day 0",4.2 ± 1.2%
same,% Lysis,"[3]; 0.0175 mL/L 1 time per day, day 3",2.5 ± 1.2%
same,% Lysis,"[3]; 0.0175 mL/L 1 time per day, day 4",4.2 ± 1.2%
same,% Lysis,"[3]; 0.0175 mL/L 1 time per day, day 5",9.2 ± 1.2%
same,percent lysis,[3]; all treated cultures except 0.014 mL/L three times per day,10%
